Experimental data: patent publication US10828301B2, “2,4-pyrimidinediamine compounds and their uses” (Rigel Pharmaceuticals, Inc, priority 2002, dated 2020)

Key:
[1] = tested on: cultured human mast cells (CHMC); test: CHMC low cell density IgE activation: tryptase and LTC4 assays; assay type: cell-based; settings: Low Density CHMC, anti-IgE activation, tryptase readout, read-out: CHMC anti-IgE Tryptase
Experimental: Pellet CHMC cells (980 rpm, 10 min) and resuspend in pre-warmed MT. Add 65 ul of cells to each 96-well plate. Depending on the degranulation activity for each particular CHMC donor, load 1000-1500 cells/well. Mix four times followed by a 1 hr incubation at 37° C. […] Stimulate cells by adding 25 ul of 6× anti-IgE solution to the appropriate plates. Add 25 ul MT to un-stimulated control wells. Mix twice following addition of the anti-IgE. Incubate at 37° C. for 30 minutes. […] Spin plates at 1000 rpm for 10 min to pellet cells. Transfer 25 ul of supernatant to a 96-well black bottom plate and add 100 ul of freshly diluted tryptase substrate solution to each well. Incubate plates at room temperature for 30 min.
Leukotriene C4 (LTC4) is also quantified using an ELISA kit on appropriately diluted supernatant samples (determined empirically for each donor cell population so that the sample measurement falls within the standard curve) following the supplier's instructions.

[2] = tested on: cultured human mast cells (CHMC); test: CHMC low cell density ionomycin activation: tryptase assay; assay type: cell-based; settings: Low Density CHMC, ionomycin activation, tryptase readout, read-out: CHMC Ionomycin Tryptase

SMILES	IC50 [1] [µM]	IC50 [2] [µM]	IC50 ([1]; Homo sapiens, Mast cell) [µM]	IC50 ([2]; Homo sapiens, Mast cell) [µM]
CNC(=O)COc1cccc(Nc2ncc(F)c(Nc3ccc4c(c3)C(O)CCC4)n2)c1 (racemic) [Compound R926949, 5-Fluoro-N4-(1,2,3,4-tetrahydro-1-hydroxynaphthalen-7-yl)-N2-[3-[(N-methylamino)carbonylmethyleneoxy]phenyl]-2,4-pyrimidinediamine]	0.089	> 10		
COC(=O)C1Cc2cc(Nc3ncc(F)c(Nc4ccc(Cl)cc4)n3)ccc2O1 (racemic) [Compound R927024, (±)-N4-(4-Chlorophenyl)-N2-(2,3-dihydro-2-methoxycarbonylbenzofuran-5-yl)-5-fluoro-2,4-pyrimidinediamine]			0.326	99
COC(=O)C1Cc2cc(Nc3ncc(F)c(Nc4ccc(F)c(F)c4)n3)ccc2O1 (racemic) [Compound R927030, (±)-N4-(3,4-Difluorophenyl)-N2-(2,3-dihydro-2-methoxycarbonylbenzofuran-5-yl)-5-fluoro-2,4-pyrimidinediamine]			0.26	> 10
COC(=O)C1Cc2cc(Nc3ncc(F)c(Nc4ccc(Cl)c(Cl)c4)n3)ccc2O1 (racemic) [Compound R927031, (±)-N4-(3,4-Dichlorophenyl)-N2-(2,3-dihydro-2-methoxycarbonylbenzofuran-5-yl)-5-fluoro-2,4-pyrimidinediamine]			0.215	99
CNC(=O)C1Cc2cc(Nc3ncc(F)c(Nc4ccc(F)c(F)c4)n3)ccc2O1 (racemic) [Compound R927035, (±)-N4-(3,4-Difluorophenyl)-5-fluoro-N2-[2,3-dihydro-2-(N-methylamino)carbonylbenzofuran-5-yl]-2,4-pyrimidinediamine]			0.583	> 10
CNC(=O)C1Cc2cc(Nc3ncc(F)c(Nc4ccc(Cl)c(Cl)c4)n3)ccc2O1 (racemic) [Compound R927037, (±)-N4-(3,4-Dichlorophenyl)-N2-[2,3-dihydro-2-(N-methylamino)carbonylbenzofuran-5-yl]-5-fluoro-2,4-pyrimidinediamine]			0.233	> 10
CNC(=O)C1Cc2cc(Nc3ncc(F)c(Nc4ccc(OC)nc4OC)n3)ccc2O1 (racemic) [Compound R927038, (±)-N4-(2,6-Dimethoxypyridin-3-yl)-N2-[2,3-dihydro-2-(N-methylamino)carbonylbenzofuran-5-yl]-5-fluoro-2,4-pyrimidinediamine]			1.05	> 10
CC(Nc1nc(Nc2cccc(O)c2)ncc1F)c1ccc(F)cc1 (racemic) [Compound R935021, (±)-5-Fluoro-N4-[1-(4-fluorophenyl)ethyl]-N2-(3-hydroxyphenyl)-2,4-pyrimidinediamine]			> 10	> 10
CC(Nc1nc(Nc2cccc(O)c2)ncc1Br)c1ccc(F)cc1 (racemic) [Compound R935023, (±)-5-Bromo-N4-[1-(4-fluorophenyl)ethyl]-N2-(3-hydroxyphenyl)-2,4-pyrimidinediamine]			> 10	> 10
O=C1COc2cc(Nc3ncc(F)c(Nc4cccc(O)c4)n3)ccc2N1 [Compound R908699, N2-(1,4-Benzoxazin-3-on-7-yl)-5-fluoro-N4-(3-hydroxyphenyl)-2,4-pyrimidinediamine]			0.217	> 10
O=C1COc2ccc(Nc3nc(Nc4cccc(O)c4)ncc3F)cc2N1 [Compound R908702, N4-(1,4-Benzoxazine-3-on-6-yl)-5-fluoro-N2-(3-hydroxyphenyl)-2,4-pyrimidinediamine]			0.104	7.4
CN1C(=O)COc2ccc(Nc3ncc(F)c(Nc4cccc(O)c4)n3)cc21 [Compound R908703, 5-Fluoro-N4-(3-hydroxyphenyl)-N2-(N-methyl-1,4-benzoxazine-3-on-6-yl)-2,4-pyrimidinediamine]			0.63	> 10
CN1C=COc2cc(Nc3ncc(F)c(Nc4cccc(O)c4)n3)ccc21 [Compound R908704, 5-Fluoro-N4-(3-hydroxyphenyl)-N2-(N-methyl-1,4-benzoxazin-7-yl)-2,4-pyrimidinediamine]			0.511	> 10
Oc1cccc(Nc2nc(Nc3ccc4c(c3)OCC=N4)ncc2F)c1 [Compound R908706, N2-(1,4-Benzoxazin-7-yl)-5-fluoro-N4-(3-hydroxyphenyl)-2,4-pyrimidinediamine]			0.445	> 10
CN1C=COc2cc(Nc3nc(Nc4cccc(O)c4)ncc3F)ccc21 [Compound R908707, 5-Fluoro-N2-(3-hydroxyphenyl)-N4-(N-methyl-1,4-benzoxazin-7-yl)-2,4-pyrimidinediamine]			1.83	> 10
CN1C=COc2ccc(Nc3nc(Nc4cccc(O)c4)ncc3F)cc21 [Compound R908710, 5-Fluoro-N2-(3-hydroxyphenyl)-N4-(N-methyl-1,4-benzoxazin-6-yl)-2,4-pyrimidinediamine]			1.84	99

SMILES	IC50 [1] [µM]	IC50 [2] [µM]	IC50 ([1]; Homo sapiens, Mast cell) [µM]	IC50 ([2]; Homo sapiens, Mast cell) [µM]
Oc1cccc(Nc2ncc(F)c(Nc3ccc4c(c3)N=CCO4)n2)c1 [Compound R909243, N4-(1,4-benzoxazin-6-yl)-5-fluoro-N2-(3-hydroxyphenyl)-2,4-pyrimidinediamine]			0.263	> 10
COc1cc(Nc2ncc(F)c(Nc3ccc4c(c3)N=CCO4)n2)cc(OC)c1 [Compound R909245, N4-(1,4-Benzoxazin-6-yl)-N2-(3,5-dimethoxyphenyl)-5-fluoro-2,4-pyrimidinediamine]			0.255	6.24
CC(C)(C)c1cccc(Nc2ncc(F)c(Nc3ccc4c(c3)N=CCO4)n2)c1 [Compound R909246, N4-(1,4-Benzoxazin-6-yl)-N2-(3-tert-butylphenyl)-5-fluoro-2,4-pyrimidinediamine]			0.169	> 10
OCCOc1ccc(Nc2ncc(F)c(Nc3ccc4c(c3)N=CCO4)n2)cc1 [Compound R909248, N4-(1,4-Benzoxazin-6-yl)-5-fluoro-N2-[4-(2-hydroxyethyl)oxyphenyl]-2,4-pyrimidinediamine]			3.58	> 10
Oc1cccc(Nc2nc(Nc3ccc4c(c3)CCO4)ncc2F)c1 [Compound R909250, N2-(2,3-Dihydrobenzofuran-5-yl)-5-fluoro-N4-(3-hydroxyphenyl)-2,4-pyrimidinediamine]			8.03	> 10
Cc1cc(Nc2ncc(F)c(Nc3ccc4c(c3)N=CCO4)n2)cc(Cl)c1O [Compound R909255, N4-(1,4-Benzoxazin-6-yl)-N2-(3-chloro-4-hydroxy-5-methylphenyl)-5-fluoro-2,4-pyrimidinediamine]			0.244	> 10
Oc1cccc(Nc2ncc(F)c(Nc3ccc(OC(F)(F)F)c(Cl)c3)n2)c1 [Compound R920411, N4-(3-Chloro-4-trifluoromethoxyphenyl)-5-fluoro-N2-(3-hydroxyphenyl)-2,4-pyrimidinediamine]			0.564	> 10
CCCCCCOc1ccc(Nc2ncc(F)c(Nc3ccc4c(c3)OCCO4)n2)cc1 [Compound R920664, N4-(3,4-Ethylenedioxyphenyl)-5-fluoro-N2-(4-n-hexyloxyphenyl)-2,4-pyrimidindiamine]			> 10	> 10
CCCCOc1ccc(Nc2cc(Nc3ccc4c(c3)OCCO4)c(F)cn2)cc1 [Compound R920666, N2-(4-n-Butyloxyphenyl)-N4-(3,4-ethylenedioxyphenyl)-5-fluoro-2,4-pyridinediamine]			2.53	> 10
Fc1cnc(Nc2cccnc2)nc1Nc1ccc2c(c1)OCCO2 [Compound R920668, N4-(3,4-Ethylenedioxyphenyl)-5-fluoro-N2-(3-pyridyl)-2,4-pyrimidinediamine]			3.2	> 10
CCCCOc1ccc(Nc2cc(Nc3ccc4c(c3)OCCO4)ncc2F)cc1 [Compound R920671, N4-(4-n-Butyloxyphenyl)-N2-(3,4-ethylenedioxyphenyl)-5-fluoro-2,4-pyridinediamine]			> 10	> 10
CCCCCCOc1ccc(Nc2cc(Nc3ccc4c(c3)OCCO4)ncc2F)cc1 [Compound R920672, N4-(4-n-Hexyloxyphenyl)-N2-(3,4-ethylenedioxyphenyl)-5-fluoro-2,4-pyridinediamine]			> 10	> 10
Oc1cccc(Nc2nc(Nc3ccc(OCc4nnn[nH]4)cc3)ncc2C(F)(F)F)c1 [Compound R920846]	> 10	> 10		
CCOC(=O)c1cccc(Nc2ncc(F)c(Nc3ccc4c(c3)OCCO4)n2)c1 [Compound R925745, N2-(3-Ethoxycarbonylphenyl)-N4-(3,4-ethylenedioxyphenyl)-5-fluoro-2,4-pyrimidinediamine]			1.77	> 10
OCc1cccc(Nc2ncc(F)c(Nc3cccc(CO)c3)n2)c1 [Compound R925757, N2,N4-Bis(3-(hydroxymethyl)phenyl)-5-fluoro-2,4-pyrimidinediamine]			2.8	> 10
OCc1cccc(Nc2nc(Nc3ccc4c(c3)OCCO4)ncc2F)c1 [Compound R925758, N2-(3,4-Ethylenedioxyphenyl)-5-fluoro-N4-[3-(hydroxymethyl)phenyl]-2,4-pyrimidinediamine]			1.18	> 10
